Measurements: PubChem BioAssay (NCI)
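Five compound concentrations were applied to cells in 96-well plates for 48 hours; endpoints were derived by simple linear interpolation of the resulting dose-response curve. Abbreviation: GI50, concentration required for 50% inhibition of growth. TGI denotes the concentration required for complete inhibition of growth.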

Assays:
Experiment in all cases: NCI-60 cell line screen, 48 h
BT-549 breast = system: BT-549 breast
HCT-15 colon = system: HCT-15 colon
MDA-N = system: MDA-N
OVCAR-8 ovarian = system: OVCAR-8 ovarian
RXF 393 renal = system: RXF 393 renal
SF-268 CNS = system: SF-268 CNS
HL-60(TB) leukemia = system: HL-60(TB) leukemia
HOP-92 NSCLC = system: HOP-92 NSCLC
LOX IMVI melanoma = system: LOX IMVI melanoma
NCI-H460 lung = system: NCI-H460 lung

| Compound | TGI (BT-549 breast) [µM] | TGI (HCT-15 colon) [µM] | TGI (MDA-N) [µM] | TGI (OVCAR-8 ovarian) [µM] | TGI (RXF 393 renal) [µM] | TGI (SF-268 CNS) [µM] | TGI (HL-60(TB) leukemia) [µM] | TGI (HOP-92 NSCLC) [µM] | TGI (LOX IMVI melanoma) [µM] | TGI (NCI-H460 lung) [µM] | GI50 (BT-549 breast) [µM] | GI50 (HCT-15 colon) [µM] | GI50 (HL-60(TB) leukemia) [µM] | GI50 (HOP-92 NSCLC) [µM] | GI50 (LOX IMVI melanoma) [µM] | GI50 (NCI-H460 lung) [µM] | GI50 (OVCAR-8 ovarian) [µM] | GI50 (RXF 393 renal) [µM] | GI50 (SF-268 CNS) [µM] |
| --- | --- | --- | --- | --- | --- | --- | --- | --- | --- | --- | --- | --- | --- | --- | --- | --- | --- | --- | --- |
| O=C1N[C@H](C(=O)O)[C@@H](c2ccc(OCc3ccccc3)cc2)O1 | > 100 | > 100 | > 100 | 45.8 | 32.1 | 87.9 | – | – | – | – | – | – | – | – | – | – | – | – | – |
| CC#CC#C/C=C1\C=CC2(OC=CC2O)O1 (stereo not drawn) | – | > 23.3 | – | > 23.3 | > 22 | > 23.3 | > 23.3 | > 23.3 | > 23.3 | > 23.3 | – | – | – | – | – | – | – | – | – |
| Cc1cc(=O)oc2c(C)c3oc(CBr)cc3cc12 | 33.5 | 44.3 | 40.9 | 66.7 | – | 51.5 | > 100 | – | 31.1 | 36.4 | – | – | – | – | – | – | – | – | – |
| C#CCNC(=O)CC[C@@H](C)[C@H]1CC[C@H]2[C@@H]3CC[C@@H]4CC(=O)CC[C@]4(C)[C@H]3CC[C@]12C | 36.7 | 36.3 | – | 32.8 | 31.7 | 44.4 | 18 | 10.3 | 39.8 | 51.2 | 13.7 | 12.1 | 3.47 | 2.54 | 17.5 | 22 | 6.06 | 14 | 17.5 |
| Cn1c(=O)cc(Nc2ccc(N)cc2)[nH]c1=O | > 100 | > 100 | > 100 | > 100 | > 100 | > 100 | – | > 100 | > 100 | > 100 | – | – | – | – | – | – | – | – | – |
| CC(C)=CCc1cc(/C=C/C(=O)O)cc(CC=C(C)C)c1O | > 100 | > 100 | > 100 | > 100 | – | > 100 | > 100 | > 100 | > 100 | > 100 | – | – | – | – | – | – | – | – | – |
| CC(C)C(CCOS(=O)(=O)O)CCC(C)[C@H]1[C@@H](O)C(O)C2[C@]3(O)C[C@@H](O)C4(O)C[C@@H](O)CC[C@]4(C)C3CC[C@@]21C (stereo partly drawn) | – | > 100 | – | > 100 | > 100 | > 100 | > 100 | > 100 | > 100 | > 100 | – | – | – | – | – | – | – | – | – |
| COc1cc(C(c2ccc3c(c2)OCO3)C2SCCCS2)cc(OC)c1OC (stereo not drawn) | > 100 | 6.58 | 1.77 | 64.8 | 4.47 | > 100 | – | – | – | 2.92 | – | – | – | – | – | – | – | – | – |
| O=C(O)c1ccc(Nc2cnc3cc(C(F)(F)F)ccc3n2)cc1 | – | 83.5 | > 100 | > 100 | > 100 | > 100 | > 100 | – | > 100 | > 100 | – | – | – | – | – | – | – | – | – |
| Nc1ncnc2c1ccn2-c1cccc(NC(=O)c2ccc(N3CCOCC3)c(C(F)(F)F)c2)c1 | – | 10.4 | – | 9.62 | 5.1 | 13.1 | 8.07 | 5.82 | 12.7 | 9.33 | – | 2.74 | 3.17 | 1.6 | 3.1 | 2.92 | 2.91 | 2.05 | 3.44 |
| CC(C)c1c(O[Si](C(C)C)(C(C)C)C(C)C)cc2c(c1O)CC[C@H]1C(C)(C)CCC[C@]21C | – | > 100 | > 100 | > 100 | > 100 | > 100 | 60.4 | > 100 | > 100 | > 100 | – | – | – | – | – | – | – | – | – |
| O=C(CC(=O)N1N=C(N(c2ccccc2)c2ccccc2)CC1c1ccccc1)Nc1cccc(Cl)c1 (stereo not drawn) | > 100 | > 100 | – | > 100 | > 100 | > 100 | > 100 | > 100 | – | > 100 | – | – | – | – | – | – | – | – | – |
| [O-][N+]1=C2CCC/C(=N/O)C2(O)C2CCCCC21N1CCOCC1 (stereo not drawn) | > 100 | > 100 | > 100 | > 100 | > 100 | > 100 | – | – | > 100 | > 100 | – | – | – | – | – | – | – | – | – |
| CC1(C)N([O-])[N+](=O)C1(C)O (stereo not drawn) | > 100 | > 100 | > 100 | > 100 | > 100 | > 100 | > 100 | – | > 100 | > 100 | – | – | – | – | – | – | – | – | – |
| c1ccc2c(c1)-c1ccccc1C2NC1=NCCO1 | – | 21.3 | 24 | 57.2 | > 100 | > 100 | 48.5 | 36.3 | 48.3 | 27.1 | – | – | – | – | – | – | – | – | – |
| COc1cc(OC)c(/C=N\Nc2nc3ccccc3c(=O)n2-c2ccccc2)c(OC)c1 | – | > 100 | 43.9 | > 64 | 55 | > 100 | > 100 | 64.3 | 69.6 | > 77.8 | – | – | – | – | – | – | – | – | – |
| COc1cccc(/C=N/[N-]C(N)=O)c1[O-].[Co+2].[OH3+].c1ccncc1 | – | > 100 | – | > 100 | > 100 | > 100 | > 100 | > 100 | > 100 | > 100 | – | – | 30.8 | – | – | – | – | – | – |
| O=C(OCC(OC(=O)c1ccccc1)C1CC(C2(O)CCCCC2)C(=O)O1)c1ccccc1 (stereo not drawn) | > 25 | > 25 | > 25 | > 25 | > 25 | > 25 | – | – | > 25 | > 25 | – | – | – | – | – | – | – | – | – |
| C=C(C)[C@H]1CC(=O)[C@@]2(C)C[C@H]3O[C@]3(C)CC/C=C(\C)CC[C@H]12 | – | > 100 | > 100 | > 100 | 74.1 | > 100 | 75.2 | > 100 | > 100 | > 100 | – | – | – | – | – | – | – | – | – |
| COc1ccc(CNc2nc3cc(C(F)(F)F)ccc3nc2C(=O)O)cc1 | 69.6 | 69.3 | 74.6 | > 100 | – | – | – | 62.9 | 44.3 | > 100 | – | – | – | – | – | – | – | – | – |
| O=C1c2ccccc2C(=O)N1NC1=NCCN1 | > 100 | > 100 | > 100 | > 100 | > 100 | > 100 | > 100 | – | > 100 | > 100 | – | – | – | – | – | – | – | – | – |
| CCCC(C(=O)OC)C1N=C(NC#N)N(Cc2ccccc2)C1=O (stereo not drawn) | – | > 100 | – | > 100 | > 100 | > 100 | > 100 | – | > 100 | > 100 | – | – | – | – | – | – | – | – | – |
